Measurements taken from PMC4556473 (British Journal of Pharmacology, 2015).
One block for each molecule: values may come before it.

Assays:
F304Y mSlo3 = F304Y mSlo3 (Mus musculus, UniProt O54982, F304Y); experiment: Two-electrode voltage clamp of F304Y mSlo3 currents in Xenopus oocytes; assay type: cell-based; conditions: +100 mV
Experimental: A plasmid containing the full-length mSlo3 sequence was a gift from Dr L. Salkoff (Washington University School of Medicine) and the open-reading frame was subcloned into pBF (Baukrowitz et al., [1999]), a vector optimized for in vitro mRNA synthesis and Xenopus oocyte expression. […] The […] and […] mutations were introduced by Quikchange site-directed mutagenesis (Agilent Technologies, Stockport, UK) and confirmed by automated sequencing. In vitro transcription was carried out using the mMessage mMachine SP6 kit (Ambion, Huntingdon, UK) to produce capped mRNA. Individual oocytes were obtained from humanely killed female Xenopus laevis toads (housed either at the University of Leeds, UK or from the European Xenopus Resource Centre, University of Portsmouth, UK) and were injected with 10-50 ng RNA in a 40 nL volume. […] The volume of the bath was 0.5 mL, which was perfused at a rate of approximately 1 mL·min^-1. 100 mM K^+ solution was made by an equimolar replacement of NaCl with KCl. Data were analysed with […], OriginPro 7.5 (Originlab, Northampton, MA, USA), and GraphPad Prism 6 software (GraphPad Software, San Diego, CA, USA). […]

[1] = molecular target: T1, WT mSlo3 (KCa5.1) channels (Mus musculus, UniProt O54982); experiment: Two-electrode voltage clamp of WT mSlo3 currents in Xenopus oocytes; assay type: cell-based; conditions: for inhibition of WT mSlo3 current: pulses to +100 mV
T1 construct: Full-length WT, R196Q and F304Y mSlo3 K^+ channel subunits were expressed in Xenopus oocytes; expressed in transfected cells; host or cells: Xenopus laevis oocytes injected with in vitro transcribed capped mRNA (pBF vector)
T1 sequence (O54982 1-1121): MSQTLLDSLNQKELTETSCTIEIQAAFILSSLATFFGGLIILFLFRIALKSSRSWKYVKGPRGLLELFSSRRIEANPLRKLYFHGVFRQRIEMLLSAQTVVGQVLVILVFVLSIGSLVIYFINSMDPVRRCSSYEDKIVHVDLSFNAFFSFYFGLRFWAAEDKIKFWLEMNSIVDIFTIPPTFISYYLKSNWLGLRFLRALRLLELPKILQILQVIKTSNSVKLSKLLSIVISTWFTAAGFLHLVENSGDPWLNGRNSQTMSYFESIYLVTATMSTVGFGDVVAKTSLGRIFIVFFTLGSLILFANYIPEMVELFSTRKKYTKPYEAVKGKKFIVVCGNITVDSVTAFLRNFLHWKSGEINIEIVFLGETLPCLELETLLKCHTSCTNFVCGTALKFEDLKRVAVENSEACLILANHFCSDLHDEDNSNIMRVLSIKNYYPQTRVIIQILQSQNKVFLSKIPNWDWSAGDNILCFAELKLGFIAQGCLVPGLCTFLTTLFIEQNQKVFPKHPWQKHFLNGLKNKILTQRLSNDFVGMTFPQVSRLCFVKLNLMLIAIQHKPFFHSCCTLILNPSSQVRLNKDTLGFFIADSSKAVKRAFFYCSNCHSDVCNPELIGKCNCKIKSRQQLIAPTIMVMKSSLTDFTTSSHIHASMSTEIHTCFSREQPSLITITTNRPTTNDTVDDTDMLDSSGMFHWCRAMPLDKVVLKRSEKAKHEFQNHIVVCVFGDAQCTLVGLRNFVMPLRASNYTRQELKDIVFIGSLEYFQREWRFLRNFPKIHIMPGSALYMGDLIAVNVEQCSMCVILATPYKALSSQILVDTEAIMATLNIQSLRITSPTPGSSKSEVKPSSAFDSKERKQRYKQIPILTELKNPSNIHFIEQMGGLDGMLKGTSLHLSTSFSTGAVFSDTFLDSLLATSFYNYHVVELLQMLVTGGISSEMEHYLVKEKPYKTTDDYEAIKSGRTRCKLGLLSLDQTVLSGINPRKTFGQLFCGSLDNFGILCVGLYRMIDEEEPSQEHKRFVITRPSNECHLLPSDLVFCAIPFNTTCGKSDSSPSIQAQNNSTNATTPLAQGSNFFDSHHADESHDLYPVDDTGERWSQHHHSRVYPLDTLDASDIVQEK
Experimental: A plasmid containing the full-length mSlo3 sequence was a gift from Dr L. Salkoff (Washington University School of Medicine) and the open-reading frame was subcloned into pBF (Baukrowitz et al., [1999]), a vector optimized for in vitro mRNA synthesis and Xenopus oocyte expression. […] The […] and […] mutations were introduced by Quikchange site-directed mutagenesis (Agilent Technologies, Stockport, UK) and confirmed by automated sequencing. In vitro transcription was carried out using the mMessage mMachine SP6 kit (Ambion, Huntingdon, UK) to produce capped mRNA. Individual oocytes were obtained from humanely killed female Xenopus laevis toads (housed either at the University of Leeds, UK or from the European Xenopus Resource Centre, University of Portsmouth, UK) and were injected with 10-50 ng RNA in a 40 nL volume. […] The volume of the bath was 0.5 mL, which was perfused at a rate of approximately 1 mL·min^-1. 100 mM K^+ solution was made by an equimolar replacement of NaCl with KCl. Data were analysed with […], OriginPro 7.5 (Originlab, Northampton, MA, USA), and GraphPad Prism 6 software (GraphPad Software, San Diego, CA, USA). […] Data are presented as the mean ± SEM of n individual oocytes and statistical significance tested using Student's t-test, ANOVA (with Bonferroni post hoc comparison of means), or by Kruskal-Wallis test (with Dunn's post hoc comparison) as indicated in the Results.

Sequence of F304Y mSlo3 (O54982 whole entry F304Y): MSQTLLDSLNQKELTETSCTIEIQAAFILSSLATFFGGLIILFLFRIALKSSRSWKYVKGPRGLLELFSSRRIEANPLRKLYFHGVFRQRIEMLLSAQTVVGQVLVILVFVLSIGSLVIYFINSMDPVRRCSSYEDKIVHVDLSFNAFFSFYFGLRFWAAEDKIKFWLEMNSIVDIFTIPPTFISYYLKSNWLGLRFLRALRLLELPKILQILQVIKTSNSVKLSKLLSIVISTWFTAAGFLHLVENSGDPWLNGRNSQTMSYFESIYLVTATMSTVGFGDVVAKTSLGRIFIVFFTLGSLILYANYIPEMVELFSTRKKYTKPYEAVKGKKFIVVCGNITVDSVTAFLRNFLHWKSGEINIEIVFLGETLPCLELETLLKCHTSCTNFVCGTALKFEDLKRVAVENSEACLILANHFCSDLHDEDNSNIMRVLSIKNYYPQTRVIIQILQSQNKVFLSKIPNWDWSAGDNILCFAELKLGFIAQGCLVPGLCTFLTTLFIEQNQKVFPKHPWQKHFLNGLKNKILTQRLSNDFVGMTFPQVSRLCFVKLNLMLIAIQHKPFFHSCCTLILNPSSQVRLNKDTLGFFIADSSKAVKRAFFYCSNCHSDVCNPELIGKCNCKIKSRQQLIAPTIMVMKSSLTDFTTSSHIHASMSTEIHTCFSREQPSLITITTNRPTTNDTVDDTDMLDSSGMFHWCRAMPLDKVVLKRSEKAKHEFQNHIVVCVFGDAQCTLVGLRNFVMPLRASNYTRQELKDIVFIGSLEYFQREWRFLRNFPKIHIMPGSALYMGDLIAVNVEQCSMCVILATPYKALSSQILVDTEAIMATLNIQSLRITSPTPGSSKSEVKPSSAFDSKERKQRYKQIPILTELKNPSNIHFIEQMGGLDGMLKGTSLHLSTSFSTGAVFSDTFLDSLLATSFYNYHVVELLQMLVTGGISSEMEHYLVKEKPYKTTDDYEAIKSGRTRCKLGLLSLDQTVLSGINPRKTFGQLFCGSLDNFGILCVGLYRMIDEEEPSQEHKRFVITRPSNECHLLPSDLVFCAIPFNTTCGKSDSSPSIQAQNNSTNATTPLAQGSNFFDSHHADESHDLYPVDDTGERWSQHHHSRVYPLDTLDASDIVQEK

SMILES: [Ba+2].[Cl-].[Cl-] [Ba^2+, barium chloride]
- Hill slope of inhibition of F304Y mSlo3 currents (F304Y mSlo3): 1.05 ± 0.12
- IC50 (F304Y mSlo3; Xenopus oocytes, read-out: IC50 of inhibition of F304Y mSlo3 currents): 525 ± 97 µM
- inhibition of WT mSlo3 current ([1]; 2 mM, 2.5 mM extracellular K+): strongly inhibited
- inhibition of WT mSlo3 current in high extracellular K+ ([1]; 2 mM, extracellular K+ raised to 100 mM): prevented
- Hill slope of inhibition of WT mSlo3 currents ([1]; +100 mV): 0.88 ± 0.11
- IC50 ([1]; currents evoked by voltage pulses to +100 mV, Xenopus oocytes, 2.5 mM K+ Ringer's pH 8, read-out: IC50 of inhibition of WT mSlo3 currents): 646 ± 100 µM

SMILES: CC[N+](CC)(CC)CC.[Cl-] [TEA^+, tetraethlyammonium chloride]
- inhibition of WT mSlo3 current ([1]; 20 mM): weakly inhibited

- inhibition of WT mSlo3 current ([1]; 50 μM): more strongly inhibited
SMILES: CCCCCCC[N+](CC)(CC)CCCCc1ccc(Cl)cc1 [clofilium]

- inhibition of WT mSlo3 current ([1]; 5 μM): weakly inhibited
SMILES: COCC(=O)O[C@]1(CCN(C)CCCc2nc3ccccc3[nH]2)CCc2cc(F)ccc2[C@@H]1C(C)C [mibefridil, mibefradil]
